Experimental data published in patent US20260262643A1, “HERBICIDAL BENZOXAZINES” (FMC CORPORATION, priority 2022, published 2026).

Columns and labels:
sedge, umbrella = experiment: Test D flooded paddy test; assay type: in vivo, Cyperus difformis; details: 250 g ai/ha, applied to paddy water, visual rating after 13 to 14 days, scale 0 to 100 (0 no effect, 100 complete control)
Summary of the method: (§1)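 Compounds go straight into paddy water over 2-leaf plants in pots flooded to 3 cm. Greenhouse holding lasts 13 to 14 days. Injury is scored by eye against controls from 0 (none) to 100 (complete control).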

corn [1] = experiment: Test C preemergence; assay type: in vivo, Zea mays; details: preemergence, 0 to 100 scale (0 no effect, 100 complete control)
Summary of the method: (§2)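 Test material, in non-phytotoxic solvent with surfactant, was sprayed on the soil directly after seeding (preemergence) or on young plants of 2–10 cm with one to two leaves (postemergence). Greenhouse, 10 days; 0–100 visual control scale.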

blackgrass [2] = experiment: Test C postemergence; assay type: in vivo, Alopecurus myosuroides; details: 10 days
Summary of the method: as §2

corn [3] = experiment: Test C postemergence; assay type: in vivo, Zea mays; details: 10 days
Summary of the method: as §2

oat, wild [4] = experiment: Test C preemergence; assay type: in vivo, Avena fatua; details: preemergence, 0 to 100 scale (0 no effect, 100 complete control)
Summary of the method: as §2

galium = experiment: Test C postemergence; assay type: in vivo, Galium aparine; details: 10 days
Summary of the method: as §2

green foxtail [5] = experiment: Test C postemergence; assay type: in vivo, Setaria viridis; details: 10 days
Summary of the method: as §2

barnyardgrass [6] = experiment: Test C postemergence; assay type: in vivo, Echinochloa crusgalli; details: 10 days
Summary of the method: as §2

oat, wild [7] = experiment: Test C postemergence; assay type: in vivo, Avena fatua; details: 10 days
Summary of the method: as §2

blackgrass [8] = experiment: Test C preemergence; assay type: in vivo, Alopecurus myosuroides; details: preemergence, 0 to 100 scale (0 no effect, 100 complete control)
Summary of the method: as §2

ryegrass, Italian [9] = experiment: Test C preemergence; assay type: in vivo, Lolium multiflorum; details: preemergence, 0 to 100 scale (0 no effect, 100 complete control)
Summary of the method: as §2

pigweed, palmer [10] = experiment: Test C postemergence; assay type: in vivo, Amaranthus palmeri; details: 10 days
Summary of the method: as §2

ragweed [11] = experiment: Test C postemergence; assay type: in vivo, Ambrosia artemisiifolia; details: 10 days
Summary of the method: as §2

pigweed, palmer [12] = experiment: Test C preemergence; assay type: in vivo, Amaranthus palmeri; details: preemergence, 0 to 100 scale (0 no effect, 100 complete control)
Summary of the method: as §2

wheat [13] = experiment: Test C postemergence; assay type: in vivo, Triticum aestivum; details: 10 days
Summary of the method: as §2

wheat [14] = experiment: Test C preemergence; assay type: in vivo, Triticum aestivum; details: preemergence, 0 to 100 scale (0 no effect, 100 complete control)
Summary of the method: as §2

ryegrass, Italian [15] = experiment: Test C postemergence; assay type: in vivo, Lolium multiflorum; details: 10 days
Summary of the method: as §2

kochia [16] = experiment: Test C postemergence; assay type: in vivo, Bassia scoparia; details: 10 days
Summary of the method: as §2

green foxtail [17] = experiment: Test C preemergence; assay type: in vivo, Setaria viridis; details: preemergence, 0 to 100 scale (0 no effect, 100 complete control)
Summary of the method: as §2

barnyardgrass [18] = experiment: Test C preemergence; assay type: in vivo, Echinochloa crusgalli; details: preemergence, 0 to 100 scale (0 no effect, 100 complete control)
Summary of the method: as §2

ragweed [19] = experiment: Test C preemergence; assay type: in vivo, Ambrosia artemisiifolia; details: preemergence, 0 to 100 scale (0 no effect, 100 complete control)
Summary of the method: as §2

soybean [20] = experiment: Test C postemergence; assay type: in vivo, Glycine max; details: 10 days
Summary of the method: as §2

soybean [21] = experiment: Test C preemergence; assay type: in vivo, Glycine max; details: preemergence, 0 to 100 scale (0 no effect, 100 complete control)
Summary of the method: as §2

ducksalad = experiment: Test D flooded paddy test; assay type: in vivo, Heteranthera limosa; details: 250 g ai/ha, applied to paddy water, visual rating after 13 to 14 days, scale 0 to 100 (0 no effect, 100 complete control)
Summary of the method: as §1

horseweed = experiment: Test C postemergence; assay type: in vivo, Erigeron canadensis; details: 10 days
Summary of the method: as §2

rice = experiment: Test D flooded paddy test; assay type: in vivo, Oryza sativa; details: 250 g ai/ha, applied to paddy water, visual rating after 13 to 14 days, scale 0 to 100 (0 no effect, 100 complete control)
Summary of the method: as §1

kochia [22] = experiment: Test C preemergence; assay type: in vivo, Bassia scoparia; details: preemergence, 0 to 100 scale (0 no effect, 100 complete control)
Summary of the method: as §2

barnyardgrass [23] = experiment: Test D flooded paddy test; assay type: in vivo, Echinochloa crus-galli; details: 250 g ai/ha, applied to paddy water, visual rating after 13 to 14 days, scale 0 to 100 (0 no effect, 100 complete control)
Summary of the method: as §1

[24] = 125 g ai/ha, postemergence, 0 to 100 scale, 0 no effect, 100 complete control
[25] = 500 g ai/ha, postemergence, 0 to 100 scale (0 no effect, 100 complete control)
[26] = Postemergence, 125 g ai/ha, 0 to 100 scale (0 no effect, 100 complete control)

## CC(C)c1ncn(-c2cccc(C(=O)N3CC(C(F)(F)F)Oc4c(Cl)cccc43)c2)n1 (single isomer, unassigned) [Compound 289]
sedge, umbrella
  Plant response rating, Sedge, Umbrella (Flood): 100
Corn [1]; 500 g ai/ha
  Corn plant response rating: 20
Corn [1]; Test C, 125 g ai/ha
  Corn plant response rating: 10
Blackgrass [2]; [24]
  Plant response rating, Blackgrass: 30
Blackgrass [2]; [25]
  Plant response rating, Blackgrass: 100
Corn [3]; [24]
  Plant response rating, Corn: 20
Corn [3]; [25]
  Plant response rating, Corn: 30
oat, wild [4]; 500 g ai/ha
  Oat, Wild plant response rating: 90
oat, wild [4]; Test C, 125 g ai/ha
  Oat, Wild plant response rating: 80
galium; [24]
  Plant response rating, Galium: 100
galium; [25]
  Plant response rating, Galium: 100
Green foxtail [5]; [24]
  Plant response rating, Foxtail, Green: 20
Green foxtail [5]; [25]
  Plant response rating, Foxtail, Green: 90
Barnyardgrass [6]; [24]
  Plant response rating, Barnyardgrass: 30
Barnyardgrass [6]; [25]
  Plant response rating, Barnyardgrass: 60
oat, wild [7]; [24]
  Plant response rating, Oat, Wild: 30
oat, wild [7]; [25]
  Plant response rating, Oat, Wild: 60
Blackgrass [8]; 500 g ai/ha
  Blackgrass plant response rating: 90
Blackgrass [8]; Test C, 125 g ai/ha
  Blackgrass plant response rating: 80
ryegrass, Italian [9]; 500 g ai/ha
  Ryegrass, Italian plant response rating: 100
ryegrass, Italian [9]; Test C, 125 g ai/ha
  Ryegrass, Italian plant response rating: 100
pigweed, palmer [10]; [24]
  Plant response rating, Pigweed, Palmer: 90
pigweed, palmer [10]; [25]
  Plant response rating, Pigweed, Palmer: 100
Ragweed [11]; [24]
  Plant response rating, Ragweed: 60
Ragweed [11]; [25]
  Plant response rating, Ragweed: 70
pigweed, palmer [12]; 500 g ai/ha
  Pigweed, Palmer plant response rating: 100
pigweed, palmer [12]; Test C, 125 g ai/ha
  Pigweed, Palmer plant response rating: 100
Wheat [13]; [24]
  Plant response rating, Wheat: 20
Wheat [13]; [25]
  Plant response rating, Wheat: 40
Wheat [14]; 500 g ai/ha
  Wheat plant response rating: 50
Wheat [14]; Test C, 125 g ai/ha
  Wheat plant response rating: 30
ryegrass, Italian [15]; [24]
  Plant response rating, Ryegrass, Italian: 40
ryegrass, Italian [15]; [25]
  Plant response rating, Ryegrass, Italian: 90
Kochia [16]; [24]
  Plant response rating, Kochia: 80
Kochia [16]; [25]
  Plant response rating, Kochia: 90
Green foxtail [17]; 500 g ai/ha
  Foxtail, Green plant response rating: 100
Green foxtail [17]; Test C, 125 g ai/ha
  Foxtail, Green plant response rating: 100
Barnyardgrass [18]; 500 g ai/ha
  Barnyardgrass plant response rating: 100
Barnyardgrass [18]; Test C, 125 g ai/ha
  Barnyardgrass plant response rating: 60
Ragweed [19]; 500 g ai/ha
  Ragweed plant response rating: 70
Ragweed [19]; Test C, 125 g ai/ha
  Ragweed plant response rating: 50
Soybean [20]; [24]
  Plant response rating, Soybean: 100
Soybean [20]; [25]
  Plant response rating, Soybean: 90
Soybean [21]; 500 g ai/ha
  Soybean plant response rating: 90
Soybean [21]; Test C, 125 g ai/ha
  Soybean plant response rating: 90
ducksalad
  Plant response rating, Ducksalad (Flood): 65
horseweed; [24]
  Plant response rating, Horseweed: 0
horseweed; [25]
  Plant response rating, Horseweed: 40
rice
  Plant response rating, Rice (Flood): 10
Kochia [22]; 500 g ai/ha
  Kochia plant response rating: 100
Kochia [22]; Test C, 125 g ai/ha
  Kochia plant response rating: 70
Barnyardgrass [23]
  Plant response rating, Barnyardgrass (Flood): 50

## Cc1cccc2c1OC(C(F)(F)F)CN2C(=O)c1cccc(-n2cnc(C(C)C)n2)c1 (single isomer, unassigned) [Compound 303]
sedge, umbrella
  Plant response rating, Sedge, Umbrella (Flood): 90
Corn [1]; 500 g ai/ha
  Corn plant response rating: 50
Corn [1]; Test C, 125 g ai/ha
  Corn plant response rating: 0
Blackgrass [2]; [25]
  Plant response rating, Blackgrass: 100
Blackgrass [2]; [26]
  Plant response rating, Blackgrass: 90
Corn [3]; [25]
  Plant response rating, Corn: 80
Corn [3]; [26]
  Plant response rating, Corn: 20
oat, wild [4]; 500 g ai/ha
  Oat, Wild plant response rating: 90
oat, wild [4]; Test C, 125 g ai/ha
  Oat, Wild plant response rating: 50
galium; [25]
  Plant response rating, Galium: 100
galium; [26]
  Plant response rating, Galium: 100
Green foxtail [5]; [25]
  Plant response rating, Foxtail, Green: 80
Green foxtail [5]; [26]
  Plant response rating, Foxtail, Green: 50
Barnyardgrass [6]; [25]
  Plant response rating, Barnyardgrass: 70
Barnyardgrass [6]; [26]
  Plant response rating, Barnyardgrass: 20
oat, wild [7]; [25]
  Plant response rating, Oat, Wild: 70
oat, wild [7]; [26]
  Plant response rating, Oat, Wild: 50
Blackgrass [8]; 500 g ai/ha
  Blackgrass plant response rating: 100
Blackgrass [8]; Test C, 125 g ai/ha
  Blackgrass plant response rating: 90
ryegrass, Italian [9]; 500 g ai/ha
  Ryegrass, Italian plant response rating: 100
ryegrass, Italian [9]; Test C, 125 g ai/ha
  Ryegrass, Italian plant response rating: 90
pigweed, palmer [10]; [25]
  Plant response rating, Pigweed, Palmer: 80
pigweed, palmer [10]; [26]
  Plant response rating, Pigweed, Palmer: 40
Ragweed [11]; [25]
  Plant response rating, Ragweed: 60
Ragweed [11]; [26]
  Plant response rating, Ragweed: 50
pigweed, palmer [12]; 500 g ai/ha
  Pigweed, Palmer plant response rating: 100
pigweed, palmer [12]; Test C, 125 g ai/ha
  Pigweed, Palmer plant response rating: 100
Wheat [13]; [25]
  Plant response rating, Wheat: 50
Wheat [13]; [26]
  Plant response rating, Wheat: 30
Wheat [14]; 500 g ai/ha
  Wheat plant response rating: 100
Wheat [14]; Test C, 125 g ai/ha
  Wheat plant response rating: 70
ryegrass, Italian [15]; [25]
  Plant response rating, Ryegrass, Italian: 90
ryegrass, Italian [15]; [26]
  Plant response rating, Ryegrass, Italian: 60
Kochia [16]; [25]
  Plant response rating, Kochia: 80
Kochia [16]; [26]
  Plant response rating, Kochia: 70
Green foxtail [17]; 500 g ai/ha
  Foxtail, Green plant response rating: 100
Green foxtail [17]; Test C, 125 g ai/ha
  Foxtail, Green plant response rating: 100
Barnyardgrass [18]; 500 g ai/ha
  Barnyardgrass plant response rating: 100
Barnyardgrass [18]; Test C, 125 g ai/ha
  Barnyardgrass plant response rating: 40
Ragweed [19]; 500 g ai/ha
  Ragweed plant response rating: 70
Ragweed [19]; Test C, 125 g ai/ha
  Ragweed plant response rating: 0
Soybean [20]; [25]
  Plant response rating, Soybean: 100
Soybean [20]; [26]
  Plant response rating, Soybean: 100
Soybean [21]; 500 g ai/ha
  Soybean plant response rating: 100
Soybean [21]; Test C, 125 g ai/ha
  Soybean plant response rating: 30
ducksalad
  Plant response rating, Ducksalad (Flood): 80
horseweed; [25]
  Plant response rating, Horseweed: 20
horseweed; [26]
  Plant response rating, Horseweed: 0
rice
  Plant response rating, Rice (Flood): 0
Kochia [22]; 500 g ai/ha
  Kochia plant response rating: 100
Kochia [22]; Test C, 125 g ai/ha
  Kochia plant response rating: 70
Barnyardgrass [23]
  Plant response rating, Barnyardgrass (Flood): 0
